Test results reported in ChEMBL document CHEMBL1201862, “PubChem BioAssay data set” (2004).
Calls of active or inactive are those of the source.

Columns and labels:
[1] = biological target: T1, E3 ubiquitin-protein ligase XIAP (Homo sapiens, UniProt P98170); assay: Counter Screen using XIAP-Bir3 for Chemical Antagonists of Bir1/2 domains of IAP-family anti-apoptotic proteins. [Related pubchem assays (depositor defined):AID1018, AID1449, AID1514, AID1638, AID1749, AID1750, AID488957, AID488963]
[2] = biological target: T1, E3 ubiquitin-protein ligase XIAP; assay: XIAP antagonists, biochemical, IAP family, fluorescence polarization (AID 1018); assay type: functional
[3] = biological target: Glyceraldehyde-3-phosphate dehydrogenase (Homo sapiens, UniProt P04406)
[4] = biological target: T2, Alkaline phosphatase, tissue-nonspecific isozyme (Homo sapiens, UniProt P05186); assay: human TNAP enzyme inhibitors, SAR follow-up, biochemical, luminescent, dose response (AID 1056)
T2 sequence (P05186 whole entry): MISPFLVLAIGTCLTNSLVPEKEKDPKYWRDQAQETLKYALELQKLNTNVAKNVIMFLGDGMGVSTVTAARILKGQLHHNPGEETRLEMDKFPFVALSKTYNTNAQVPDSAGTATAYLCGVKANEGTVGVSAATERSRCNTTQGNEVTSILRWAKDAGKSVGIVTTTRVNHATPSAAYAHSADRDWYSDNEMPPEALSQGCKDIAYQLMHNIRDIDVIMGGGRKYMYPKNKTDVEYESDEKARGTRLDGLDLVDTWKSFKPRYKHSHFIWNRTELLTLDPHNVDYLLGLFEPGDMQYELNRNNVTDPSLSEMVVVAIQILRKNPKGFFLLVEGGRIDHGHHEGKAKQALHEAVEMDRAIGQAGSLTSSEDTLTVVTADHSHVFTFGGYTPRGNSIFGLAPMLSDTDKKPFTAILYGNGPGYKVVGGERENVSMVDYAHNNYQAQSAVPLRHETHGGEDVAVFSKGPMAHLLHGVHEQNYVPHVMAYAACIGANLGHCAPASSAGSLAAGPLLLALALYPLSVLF

[5] = Luminescence Cell-Based Dose Response HTS to Identify Inhibitors of Luciferase Translation or Activity in H4-C Neuroglioblastoma Cells. [Related pubchem assays: 1813 (Primary HTS), 1827 (Project Summary)]; assay type: functional
[6] = Luminescence Cell-Based Dose Response HTS to Identify Activators of Luciferase Translation or Activity in H4-C Neuroglioblastoma Cells. [Related pubchem assays: 1829 (Project Summary), 1814 (Primary HTS)]; assay type: functional
[7] = inhibitors of firefly luciferase expression or activity, dose response, H4 neuroglioma cells, luminescence (AID 1990); assay type: functional, cell-based
[8] = Luminescence Cell-Based Dose Retest to Confirm Activators of 5'UTR Stem-Loop Driven Alpha-Synuclein mRNA Translation in H4 Neuroglioblastoma Cells. [Related pubchem assays (depositor defined):AID1813, AID1829]; assay type: functional
[9] = Luminescence Cell-Based Dose Response HTS to Identify Activators of 5'UTR Stem-Loop Driven Prion Protein mRNA Translation in H4-C Neuroglioblastoma Cells. [Related pubchem assays: 1829 (Project Summary), 1814 (Primary HTS)]; assay type: functional
[10] = Luminescence Cell-Based Dose HTS Response to Identify Inhibitors of 5'UTR Stem-Loop Driven Prion Protein mRNA Translation in H4-C Neuroglioblastoma Cells. [Related pubchem assays (depositor defined):AID1814, AID1827]; assay type: functional
BJ [11] = assay: cytotoxicity toward BJ-TERT fibroblasts, dose response, cell-based, RAS-independent, luminescence (AID 1933); assay type: functional; settings: Homo sapiens
[12] = Luminescence Cell-Based Dose Response HTS to Identify Inhibitors of 5'UTR Stem-Loop Driven Prion Protein mRNA Translation in H4 Neuroglioblastoma Cells. [Related pubchem assays: 1827 (Project Summary), 1813 (Primary HTS)]; assay type: functional
[13] = inhibitors of SNCA 5'UTR-driven reporter translation, confirmation, H4 neuroglioma cells, luminescence (AID 1988); assay type: functional, cell-based
BJ [14] = assay: cells; assay type: functional, cell-based; settings: Homo sapiens
[15] = Luminescence Cell-Based Dose Confirmation HTS to Identify Inhibitors of 5'UTR Stem-Loop Driven Alpha-Synuclein mRNA Translation in H4 Neuroglioblastoma Cells. [Related pubchem assays: 1827 (Project Summary), 1813 (Primary HTS)]; assay type: functional
BJ [16] = assay: cytotoxicity toward BJ-TERT-LT-ST fibroblasts, dose response, cell-based, RAS-independent, luminescence (AID 1935); assay type: functional; settings: Homo sapiens;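 also: BJ fibroblasts immortalized with TERT plus LT and ST oncogenes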
[17] = cytotoxicity toward DRD oncogenic fibroblasts, dose response, cell-based, non-viral oncogenic, luminescence (AID 1934); assay type: functional; settings: Homo sapiens
[18] = biological target: Lysine-specific demethylase 4C (Homo sapiens, UniProt Q9H3R0); assay: GASC-1 (JMJD2C) histone demethylase inhibitors, dose response, biochemical, DELFIA europium, cherry-picked samples (AID 488835); assay type: functional
Genome polyprotein = Genome polyprotein (dengue virus type 2, UniProt P29990); assay: Dengue-2 NS5 methyltransferase inhibitors, primary screen, biochemical, confirmation dose response (AID 588689); assay type: functional
[19] = biological target: T3, Voltage-gated N-type calcium channel alpha-1B subunit/Amyloid beta A4 precursor protein-binding family A member 1 (Homo sapiens, UniProt Q00975+Q02410); assay type: protein assay
[20] = biological target: T3, Voltage-gated N-type calcium channel alpha-1B subunit/Amyloid beta A4 precursor protein-binding family A member 1; assay type: protein assay; remark: listed apart in the source
[21] = biological target: Induced myeloid leukemia cell differentiation protein Mcl-1 (Homo sapiens, UniProt Q07820); assay type: functional
SUMO E1/E2 = SUMO E1/E2 (Homo sapiens, UniProt P63279+Q9UBE0+Q9UBT2); assay: SAR analysis of SUMOylation using HTRF in an in-Vitro dose response assay. [Related pubchem assays (depositor defined):AID2006, AID2011, AID2018, AID2069, AID2658]; assay type: functional
[22] = biological target: T3, Voltage-gated N-type calcium channel alpha-1B subunit/Amyloid beta A4 precursor protein-binding family A member 1; assay: disruptors of Mint-PDZ/N-type channel peptide interaction – biochemical, HTRF, set 2, SAR follow-up (AID 434980); assay type: functional
[23] = biological target: T3, Voltage-gated N-type calcium channel alpha-1B subunit/Amyloid beta A4 precursor protein-binding family A member 1; assay: disruptors of Mint-PDZ/N-type channel peptide interaction – biochemical, HTRF, SAR follow-up (AID 2489); assay type: functional
[24] = insulin promoter down-regulators in MIN6 cells, imaging, high-content screening, mouse beta cells (AID 1628); assay type: functional
[25] = cytotoxicity in MIN6 insulinoma cells, dose response, cytotoxicity control, cell-based, mouse insulinoma (AID 2122); assay type: functional;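 also: confirmatory high-throughput counterscreen run to flag cytotoxic compounds; mouse MIN-6 beta cells carrying an insulin promoter eGFP reporter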
[26] = Luminescence Cell-Based Dose Retest to Confirm Inhibitors of Cancer Stem Cells. [Related pubchem assays (depositor defined):AID2717, AID2721]; assay type: functional; settings: Homo sapiens
INS1 = assay: beta cell apoptosis inhibitors, cytokine rescue, dose response, luminescence, retest (AID 449756); assay type: functional, cell-based; settings: Rattus norvegicus;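 also: cell death triggered by IL-1 beta plus TNF-alpha plus IFN-gamma mixture; protective hits raise ATP signal compared with cytokine alone wells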
CHO-K1 = assay: Counterscreen for antagonists of the orexin 1 receptor (OX1R; HCRTR1): Homogeneous time resolved fluorescence (HTRF)-based cell-based dose response assay to identify antagonists of the parental CHO-K1 cell line. [Related pubchem assays (depositor defined):AID434989, AID435008, AID463079, AID485270, AID492963, AID492964, AID492965, AID493232, AID504699, AID504701]; assay type: functional; settings: Cricetulus griseus;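 also: potency for inhibition of ATP-stimulated IP1 production as antagonists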
[27] = Counterscreen for antagonists of the orexin 1 receptor (OX1R; HCRTR1): Fluorescence-based cell-based high throughput dose response assay to identify antagonists of the parental CHO cell line. [Related pubchem assays (depositor defined):AID434989, AID435008, AID463079, AID485270, AID492963, AID492964, AID492965, AID493232, AID504699, AID504701]; assay type: functional
[28] = biological target: T4, Orexin/Hypocretin receptor type 1 (Homo sapiens, UniProt O43613); assay: Homogeneous Time Resolved Fluorescence (HTRF)-based cell-based high throughput dose response assay for antagonists of the orexin 1 receptor (OX1R; HCRTR1). [Related pubchem assays (depositor defined):AID434989, AID435008, AID463079, AID485270, AID492963, AID492964, AID492965, AID493232, AID504717, AID504718]; assay type: functional
T4 sequence (O43613 whole entry): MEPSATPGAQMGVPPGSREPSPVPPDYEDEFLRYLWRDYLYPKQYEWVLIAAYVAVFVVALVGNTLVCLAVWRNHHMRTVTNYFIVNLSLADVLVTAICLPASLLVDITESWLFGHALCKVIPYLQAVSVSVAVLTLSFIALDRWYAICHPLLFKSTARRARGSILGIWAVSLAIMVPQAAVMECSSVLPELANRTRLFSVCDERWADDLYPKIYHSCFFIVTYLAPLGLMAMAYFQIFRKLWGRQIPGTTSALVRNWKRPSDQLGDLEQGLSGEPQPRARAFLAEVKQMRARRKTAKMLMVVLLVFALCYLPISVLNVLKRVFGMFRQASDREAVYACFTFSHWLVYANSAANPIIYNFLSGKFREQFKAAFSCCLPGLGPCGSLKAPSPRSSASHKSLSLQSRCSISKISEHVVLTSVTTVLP

[29] = biological target: T4, Orexin/Hypocretin receptor type 1; assay: Fluorescence-based cell-based high throughput dose response assay for antagonists of the orexin 1 receptor (OX1R; HCRTR1). [Related pubchem assays (depositor defined):AID434989, AID435008, AID463079, AID485270, AID492963, AID492964, AID492965, AID493232, AID504717, AID504718]; assay type: functional

T1 sequence (P98170 whole entry): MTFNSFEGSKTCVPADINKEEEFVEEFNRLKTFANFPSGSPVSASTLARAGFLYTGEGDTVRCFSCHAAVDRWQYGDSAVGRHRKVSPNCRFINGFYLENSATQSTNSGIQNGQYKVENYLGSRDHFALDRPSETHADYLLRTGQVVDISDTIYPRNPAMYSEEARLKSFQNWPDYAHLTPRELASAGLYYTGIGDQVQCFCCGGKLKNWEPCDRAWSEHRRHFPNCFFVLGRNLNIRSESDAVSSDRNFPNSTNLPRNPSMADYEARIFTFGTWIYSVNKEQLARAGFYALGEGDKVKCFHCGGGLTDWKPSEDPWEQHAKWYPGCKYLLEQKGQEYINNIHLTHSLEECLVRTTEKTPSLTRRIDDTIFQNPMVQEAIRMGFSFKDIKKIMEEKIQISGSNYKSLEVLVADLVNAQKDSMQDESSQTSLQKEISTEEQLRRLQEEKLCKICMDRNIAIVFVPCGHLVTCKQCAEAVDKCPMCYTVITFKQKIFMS
T3 sequence (Q00975 whole entry): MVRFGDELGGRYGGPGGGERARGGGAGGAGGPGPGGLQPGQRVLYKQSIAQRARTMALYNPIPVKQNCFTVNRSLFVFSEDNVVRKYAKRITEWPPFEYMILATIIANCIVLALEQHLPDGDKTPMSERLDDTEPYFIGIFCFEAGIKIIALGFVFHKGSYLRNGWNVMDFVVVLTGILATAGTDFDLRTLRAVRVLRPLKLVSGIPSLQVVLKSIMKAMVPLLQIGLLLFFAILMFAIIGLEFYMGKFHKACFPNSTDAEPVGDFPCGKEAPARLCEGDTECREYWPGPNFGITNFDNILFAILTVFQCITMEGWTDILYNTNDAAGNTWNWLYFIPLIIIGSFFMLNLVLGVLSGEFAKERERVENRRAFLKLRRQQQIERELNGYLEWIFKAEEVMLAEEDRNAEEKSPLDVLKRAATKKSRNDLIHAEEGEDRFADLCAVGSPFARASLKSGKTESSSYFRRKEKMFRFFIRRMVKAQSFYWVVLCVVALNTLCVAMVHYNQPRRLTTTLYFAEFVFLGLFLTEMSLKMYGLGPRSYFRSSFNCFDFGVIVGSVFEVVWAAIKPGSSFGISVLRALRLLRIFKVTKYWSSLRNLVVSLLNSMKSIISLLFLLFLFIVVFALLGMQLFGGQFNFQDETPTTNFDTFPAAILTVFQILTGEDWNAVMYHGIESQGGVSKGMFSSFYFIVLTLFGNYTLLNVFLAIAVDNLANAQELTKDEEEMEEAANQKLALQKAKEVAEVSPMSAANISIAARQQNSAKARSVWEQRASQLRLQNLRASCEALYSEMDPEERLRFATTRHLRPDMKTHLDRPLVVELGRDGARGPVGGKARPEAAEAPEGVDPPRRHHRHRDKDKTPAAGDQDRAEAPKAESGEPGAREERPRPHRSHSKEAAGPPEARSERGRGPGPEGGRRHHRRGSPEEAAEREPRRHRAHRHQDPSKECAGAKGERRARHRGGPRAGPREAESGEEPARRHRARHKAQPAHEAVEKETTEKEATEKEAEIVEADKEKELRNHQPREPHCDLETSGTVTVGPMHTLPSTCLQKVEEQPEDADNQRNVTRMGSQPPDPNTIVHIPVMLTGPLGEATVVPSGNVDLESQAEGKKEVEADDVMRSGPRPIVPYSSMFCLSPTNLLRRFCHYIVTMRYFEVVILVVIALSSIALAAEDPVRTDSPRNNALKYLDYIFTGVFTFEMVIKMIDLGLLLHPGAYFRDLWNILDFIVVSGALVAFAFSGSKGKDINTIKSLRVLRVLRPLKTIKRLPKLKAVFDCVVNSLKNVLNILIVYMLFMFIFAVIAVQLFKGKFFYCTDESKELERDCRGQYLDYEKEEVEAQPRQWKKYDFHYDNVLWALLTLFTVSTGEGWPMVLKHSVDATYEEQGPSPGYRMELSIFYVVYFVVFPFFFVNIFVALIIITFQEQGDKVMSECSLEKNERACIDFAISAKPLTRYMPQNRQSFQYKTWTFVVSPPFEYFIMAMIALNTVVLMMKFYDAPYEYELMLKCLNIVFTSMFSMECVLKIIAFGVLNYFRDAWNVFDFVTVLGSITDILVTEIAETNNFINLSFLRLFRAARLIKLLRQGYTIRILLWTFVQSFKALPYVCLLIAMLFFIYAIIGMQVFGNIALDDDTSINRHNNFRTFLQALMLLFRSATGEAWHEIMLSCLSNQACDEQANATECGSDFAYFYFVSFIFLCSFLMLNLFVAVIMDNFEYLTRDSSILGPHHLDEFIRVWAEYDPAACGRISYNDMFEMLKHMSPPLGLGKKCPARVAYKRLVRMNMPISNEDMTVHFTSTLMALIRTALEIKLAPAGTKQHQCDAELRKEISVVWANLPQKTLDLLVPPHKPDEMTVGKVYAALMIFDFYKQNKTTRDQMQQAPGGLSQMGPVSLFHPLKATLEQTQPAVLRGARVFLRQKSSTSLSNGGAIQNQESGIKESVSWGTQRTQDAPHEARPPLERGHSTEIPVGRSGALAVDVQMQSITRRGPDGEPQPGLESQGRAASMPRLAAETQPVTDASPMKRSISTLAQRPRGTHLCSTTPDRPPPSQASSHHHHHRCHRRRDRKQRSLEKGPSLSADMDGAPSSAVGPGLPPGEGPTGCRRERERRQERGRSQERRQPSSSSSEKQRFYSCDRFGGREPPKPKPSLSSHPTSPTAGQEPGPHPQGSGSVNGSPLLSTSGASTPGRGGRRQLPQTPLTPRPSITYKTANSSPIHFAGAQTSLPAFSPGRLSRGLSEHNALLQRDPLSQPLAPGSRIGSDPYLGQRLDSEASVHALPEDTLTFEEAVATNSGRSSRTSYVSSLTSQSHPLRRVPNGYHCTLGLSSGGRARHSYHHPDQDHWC
T3 sequence (Q02410 whole entry): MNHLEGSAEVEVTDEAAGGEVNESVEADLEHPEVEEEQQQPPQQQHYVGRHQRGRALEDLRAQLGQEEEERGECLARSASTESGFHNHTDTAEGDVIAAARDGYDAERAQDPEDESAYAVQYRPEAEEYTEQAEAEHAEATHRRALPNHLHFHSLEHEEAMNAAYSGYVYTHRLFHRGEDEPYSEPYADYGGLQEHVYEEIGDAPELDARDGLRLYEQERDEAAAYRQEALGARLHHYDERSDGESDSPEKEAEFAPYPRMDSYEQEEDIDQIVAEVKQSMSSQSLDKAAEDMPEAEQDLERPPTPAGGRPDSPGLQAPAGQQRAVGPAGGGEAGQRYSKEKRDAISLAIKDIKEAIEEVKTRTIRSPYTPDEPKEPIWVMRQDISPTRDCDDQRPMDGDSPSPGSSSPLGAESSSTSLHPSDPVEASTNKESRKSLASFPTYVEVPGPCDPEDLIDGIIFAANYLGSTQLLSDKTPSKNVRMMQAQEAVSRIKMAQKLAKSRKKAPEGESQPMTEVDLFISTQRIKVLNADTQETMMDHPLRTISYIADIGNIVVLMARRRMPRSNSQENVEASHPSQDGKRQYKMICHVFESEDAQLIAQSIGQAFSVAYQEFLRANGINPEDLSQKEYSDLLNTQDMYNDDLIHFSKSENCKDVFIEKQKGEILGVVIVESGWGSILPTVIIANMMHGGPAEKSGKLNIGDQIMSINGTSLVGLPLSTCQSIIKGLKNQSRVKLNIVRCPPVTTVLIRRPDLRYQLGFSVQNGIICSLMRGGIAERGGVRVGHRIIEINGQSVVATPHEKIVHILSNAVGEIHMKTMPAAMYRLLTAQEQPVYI
Sequence of SUMO E1/E2 (Q9UBE0 whole entry): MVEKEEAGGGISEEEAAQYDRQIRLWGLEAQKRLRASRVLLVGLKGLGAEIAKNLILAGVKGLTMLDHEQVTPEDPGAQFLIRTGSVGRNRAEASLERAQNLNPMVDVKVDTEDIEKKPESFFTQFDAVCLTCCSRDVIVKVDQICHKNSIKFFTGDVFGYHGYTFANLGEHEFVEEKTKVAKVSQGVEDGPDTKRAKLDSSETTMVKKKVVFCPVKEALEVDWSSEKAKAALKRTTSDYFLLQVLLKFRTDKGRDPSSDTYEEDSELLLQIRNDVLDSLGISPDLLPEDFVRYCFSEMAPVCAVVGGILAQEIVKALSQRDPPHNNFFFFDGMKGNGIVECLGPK
Sequence of SUMO E1/E2 (Q9UBT2 whole entry): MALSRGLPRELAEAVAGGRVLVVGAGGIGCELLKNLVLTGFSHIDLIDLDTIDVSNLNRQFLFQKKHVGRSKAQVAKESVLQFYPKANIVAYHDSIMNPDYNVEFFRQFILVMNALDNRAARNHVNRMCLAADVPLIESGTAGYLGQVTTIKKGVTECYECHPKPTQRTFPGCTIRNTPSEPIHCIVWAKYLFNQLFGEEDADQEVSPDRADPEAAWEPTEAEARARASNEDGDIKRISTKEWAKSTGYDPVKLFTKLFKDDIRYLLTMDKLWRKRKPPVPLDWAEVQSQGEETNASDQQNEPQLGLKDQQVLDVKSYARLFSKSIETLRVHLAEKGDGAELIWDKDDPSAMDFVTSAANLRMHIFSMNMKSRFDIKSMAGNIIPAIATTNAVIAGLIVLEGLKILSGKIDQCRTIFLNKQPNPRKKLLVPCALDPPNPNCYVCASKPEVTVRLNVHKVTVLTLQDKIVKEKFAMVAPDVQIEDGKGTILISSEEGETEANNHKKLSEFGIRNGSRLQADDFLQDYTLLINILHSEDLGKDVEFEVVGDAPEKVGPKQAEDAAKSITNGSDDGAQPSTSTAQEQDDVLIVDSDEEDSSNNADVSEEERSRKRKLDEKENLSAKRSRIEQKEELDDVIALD
Sequence of SUMO E1/E2 (P63279 whole entry): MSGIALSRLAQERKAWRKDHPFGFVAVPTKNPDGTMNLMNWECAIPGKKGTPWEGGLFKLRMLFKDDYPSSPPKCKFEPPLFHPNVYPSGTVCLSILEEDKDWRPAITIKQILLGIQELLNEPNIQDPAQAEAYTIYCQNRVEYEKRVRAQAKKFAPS

COc1cc(NC(=O)C2CCCN2S(=O)(=O)c2cccc3cccnc23)cc(OC)c1OC (stereo not given)
IC50 [1]: > 100 µM (inactive)
IC50 [2]: > 100 µM (not active)

CCOc1ccc(-c2cc(C(=O)O)[nH]n2)cc1
IC50 [3]: > 100 µM (not active)
IC50 [4]: 19.8 µM (active)

Cc1ccc(-c2cc(C(=O)N/N=C/c3c(C)nn(-c4ccccc4)c3C)[nH]n2)cc1
EC50 [5]: 1.01 µM (active)
EC50 [6]: 1.75 µM (inconclusive)
EC50 [7]: 7.44 µM (active)
EC50 [8]: 2.09 µM (inconclusive)
EC50 [9]: 1.28 µM (inconclusive)
EC50 [10]: 5.9 µM (active)
EC50 (BJ [11]): 0.603 µM (active)
EC50 [12]: 14 µM (active)
EC50 [13]: 0.327 µM (active)
EC50 (BJ [14]): 2.04 µM (inconclusive)
EC50 [15]: 10.1 µM (active)
EC50 (BJ [16]): 0.624 µM (inconclusive)
EC50 [17]: 0.576 µM (active)

Cc1cc(C)cc(OCCOc2cccc(C=C3C(=O)NC(=O)NC3=O)c2)c1
AC50 [18]: > 60 µM (inactive)
IC50 (Genome polyprotein): 46.9 µM (active)

CCNC(=O)COC(=O)c1cc(-c2ccco2)nc2ccccc12
IC50 [19]: 33.6 µM (active)
IC50 [20]: 2.82 µM (active)
IC50 [21]: 4.39 µM (active)
IC50 (SUMO E1/E2): 2.63 µM (active)
IC50 [22]: 13.3 µM (active)
IC50 [23]: 18.5 µM (active)

COc1ccccc1CNC(=O)CNC(=O)c1cc(-c2ccco2)nc2ccccc12
IC50 (SUMO E1/E2): 3.37 µM (active)
IC50 [22]: > 56.8 µM (inactive)
IC50 [23]: 23.3 µM (active)

COc1ccc(C)cc1NS(=O)(=O)c1ccc(NC(=O)CN(c2cc([N+](=O)[O-])ccc2C)S(C)(=O)=O)cc1
IC50 [24]: 1.1 µM (active)
EC50 (BJ [11]): 21 µM (active)
IC50 [25]: 1.2 µM (active)
EC50 (BJ [14]): 2.75 µM (active)
EC50 [17]: 19.7 µM (active)
AC50 [26]: 1.8 µM (active)
AC50 (INS1): 0.846 µM (active)

CC(C)(Nc1ccccc1)C(=O)c1ccccc1
IC50 [1]: > 100 µM (inactive)
IC50 [2]: > 100 µM (not active)

Cc1cccc(N(C)S(=O)(=O)c2ccc(-c3cc(C)no3)s2)c1
EC50 [5]: 6.81 µM (active)
EC50 [6]: 6.81 µM (inconclusive)
EC50 [7]: 9.86 µM (active)
EC50 [8]: 33.4 µM (inconclusive)
EC50 [9]: 1.15 µM (inconclusive)
EC50 [10]: 1.15 µM (active)
EC50 [12]: 10.4 µM (active)
EC50 [13]: 0.155 µM (active)
EC50 [15]: 33.4 µM (active)

COc1cc2ccccc2cc1C(=O)Nc1ccc(N2CCOCC2)cc1
IC50 (CHO-K1): > 66.3 µM (inactive)
IC50 [27]: > 49.8 µM (inactive)
IC50 [28]: 8.59 µM (active)
IC50 [29]: > 49.8 µM (inactive)
